Values after ≈ are worked out from the molar mass of the structure shown. Active and inactive are the calls of the source. The calls are words filed in the database; no cut-off is given here.
Experiments:
[1] = Solubility of the compound in PBS at pH 7.4; format: physicochemical
[2] = Half life in Sprague-Dawley rat at 5 mg/kg, po by LC-MS analysis; format: ADME, organism-based; conditions: in vivo
[3] = Volume of distribution at steady state in C57 BL6 mouse at 10 mg/kg, po and 2 mg/kg, iv by LC-MS analysis; format: ADME, organism-based; conditions: in vivo
[4] = Oral bioavailability in C57 BL6 mouse at 10 mg/kg administrated through oral gavage by LC-MS analysis; format: ADME, organism-based; conditions: in vivo
[5] = Half life in Beagle dog at 2 mg/kg, po and 1 mg/kg, iv by LC-MS analysis; format: ADME, organism-based, Canis lupus familiaris; conditions: in vivo
[6] = Volume of distribution at steady state in Beagle dog at 2 mg/kg, po and 1 mg/kg, iv by LC-MS analysis; format: ADME, organism-based, Canis lupus familiaris; conditions: in vivo
[7] = Oral bioavailability in Cynomolgus monkey at 5 mg/kg administrated through oral gavage and 2 mg/kg, iv by LC-MS analysis; format: ADME, organism-based, Macaca fascicularis; conditions: in vivo
[8] = Cmax in C57 BL6 mouse at 10 mg/kg, po by LC-MS analysis; format: ADME, organism-based; conditions: in vivo
[9] = Cmax in Sprague-Dawley rat at 5 mg/kg, po by LC-MS analysis; format: ADME, organism-based; conditions: in vivo
[10] = Fraction unbound in Beagle dog […] plasma; format: ADME, cell-free, Canis lupus familiaris
[11] = Cytotoxicity against human HEK293 cells measured after 72 hrs; format: toxicity, cell-based
[12] = Thermodynamic solubility in PBS at pH 5; format: physicochemical; conditions: read-out: Therm_solubility
[13] = Thermodynamic solubility in Simulated colon solution; format: physicochemical; conditions: read-out: Therm_solubility
[14] = Metabolic stability in Cynomolgus monkey hepatocytes assessed as intrinsic clearance measured per 10^6 cells; format: ADME, cell-based, Macaca fascicularis, Hepatocyte; conditions: read-out: CLH
[15] = Apparent permeability of the compound across apical to basolateral side in MDCK; format: ADME, cell-based, Canis lupus familiaris; conditions: dog
Cytochrome P450 2C8 [16] = biological target: T1, Cytochrome P450 2C8 (Homo sapiens, UniProt P10632); test: Inhibition of CYP2C8 (unknown origin); format: ADME
T1 sequence (P10632 whole entry): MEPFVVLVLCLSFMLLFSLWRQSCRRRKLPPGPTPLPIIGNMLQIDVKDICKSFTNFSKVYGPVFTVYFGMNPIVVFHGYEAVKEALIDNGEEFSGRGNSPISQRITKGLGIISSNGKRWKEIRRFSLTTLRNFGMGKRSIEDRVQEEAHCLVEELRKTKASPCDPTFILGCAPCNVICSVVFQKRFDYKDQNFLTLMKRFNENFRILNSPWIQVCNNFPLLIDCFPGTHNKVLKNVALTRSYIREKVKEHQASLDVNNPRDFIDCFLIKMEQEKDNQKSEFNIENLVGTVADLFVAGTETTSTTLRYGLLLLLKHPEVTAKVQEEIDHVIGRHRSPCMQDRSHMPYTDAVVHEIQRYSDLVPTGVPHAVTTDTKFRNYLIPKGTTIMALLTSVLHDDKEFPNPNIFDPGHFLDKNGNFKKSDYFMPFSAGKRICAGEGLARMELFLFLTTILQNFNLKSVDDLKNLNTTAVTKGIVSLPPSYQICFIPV

Cytochrome P450 2C9 = Cytochrome P450 2C9 (Homo sapiens, UniProt P11712); test: Inhibition of CYP2C9 (unknown origin); format: ADME
Cytochrome P450 2C19 = Cytochrome P450 2C19 (Homo sapiens, UniProt P33261); test: Inhibition of CYP2C19 (unknown origin); format: ADME
Sequence of Cytochrome P450 2C19 (P33261 whole entry): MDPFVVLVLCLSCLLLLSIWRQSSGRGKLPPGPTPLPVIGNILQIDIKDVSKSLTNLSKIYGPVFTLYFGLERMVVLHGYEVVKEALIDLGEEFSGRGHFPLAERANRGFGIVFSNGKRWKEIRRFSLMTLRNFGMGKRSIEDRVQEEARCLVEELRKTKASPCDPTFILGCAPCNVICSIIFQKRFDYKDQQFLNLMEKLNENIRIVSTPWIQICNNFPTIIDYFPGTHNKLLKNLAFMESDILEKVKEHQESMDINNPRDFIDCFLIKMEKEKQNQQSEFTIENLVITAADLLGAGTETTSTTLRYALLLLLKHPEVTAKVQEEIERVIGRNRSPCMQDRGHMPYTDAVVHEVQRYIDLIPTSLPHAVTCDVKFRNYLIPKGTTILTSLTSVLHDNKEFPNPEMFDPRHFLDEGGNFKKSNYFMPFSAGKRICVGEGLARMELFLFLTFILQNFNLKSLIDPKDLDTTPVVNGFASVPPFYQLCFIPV

Cytochrome P450 2D6 = Cytochrome P450 2D6 (Homo sapiens, UniProt P10635); test: Inhibition of CYP2D6 (unknown origin); format: ADME
Sequence of Cytochrome P450 2D6 (P10635 whole entry): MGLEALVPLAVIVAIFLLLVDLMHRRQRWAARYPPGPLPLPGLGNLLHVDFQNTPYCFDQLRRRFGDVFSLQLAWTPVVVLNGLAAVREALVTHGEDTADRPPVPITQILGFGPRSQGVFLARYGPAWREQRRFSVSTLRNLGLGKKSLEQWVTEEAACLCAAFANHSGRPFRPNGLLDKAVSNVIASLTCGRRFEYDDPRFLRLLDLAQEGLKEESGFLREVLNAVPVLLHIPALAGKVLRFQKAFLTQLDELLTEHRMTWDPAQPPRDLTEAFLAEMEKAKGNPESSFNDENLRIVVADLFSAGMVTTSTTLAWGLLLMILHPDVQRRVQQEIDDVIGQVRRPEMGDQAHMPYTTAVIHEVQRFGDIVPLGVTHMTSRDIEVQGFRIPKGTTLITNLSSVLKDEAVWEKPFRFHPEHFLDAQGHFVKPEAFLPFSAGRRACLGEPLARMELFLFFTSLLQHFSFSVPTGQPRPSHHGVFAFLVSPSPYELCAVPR

Cytochrome P450 3A4 [17] = biological target: T2, Cytochrome P450 3A4 (Homo sapiens, UniProt P08684); test: Inhibition of CYP3A4 (unknown origin); format: ADME
T2 sequence (P08684 whole entry): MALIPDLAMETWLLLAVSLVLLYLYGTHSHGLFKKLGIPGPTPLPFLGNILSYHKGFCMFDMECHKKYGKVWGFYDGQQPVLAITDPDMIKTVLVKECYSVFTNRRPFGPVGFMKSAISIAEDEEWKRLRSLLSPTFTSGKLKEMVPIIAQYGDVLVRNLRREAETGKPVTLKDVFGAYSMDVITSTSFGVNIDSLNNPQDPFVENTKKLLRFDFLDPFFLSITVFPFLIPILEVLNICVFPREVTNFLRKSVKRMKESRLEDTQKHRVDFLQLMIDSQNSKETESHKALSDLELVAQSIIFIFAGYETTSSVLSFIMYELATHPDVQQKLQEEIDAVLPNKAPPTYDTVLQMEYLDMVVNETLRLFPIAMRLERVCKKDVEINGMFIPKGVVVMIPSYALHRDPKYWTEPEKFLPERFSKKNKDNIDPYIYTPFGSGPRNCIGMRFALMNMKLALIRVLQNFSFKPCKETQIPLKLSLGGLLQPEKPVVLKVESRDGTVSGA

Cytochrome P450 3A5 = Cytochrome P450 3A5 (Homo sapiens, UniProt P20815); test: Inhibition of CYP3A5 (unknown origin); format: ADME
Sequence of Cytochrome P450 3A5 (P20815 whole entry): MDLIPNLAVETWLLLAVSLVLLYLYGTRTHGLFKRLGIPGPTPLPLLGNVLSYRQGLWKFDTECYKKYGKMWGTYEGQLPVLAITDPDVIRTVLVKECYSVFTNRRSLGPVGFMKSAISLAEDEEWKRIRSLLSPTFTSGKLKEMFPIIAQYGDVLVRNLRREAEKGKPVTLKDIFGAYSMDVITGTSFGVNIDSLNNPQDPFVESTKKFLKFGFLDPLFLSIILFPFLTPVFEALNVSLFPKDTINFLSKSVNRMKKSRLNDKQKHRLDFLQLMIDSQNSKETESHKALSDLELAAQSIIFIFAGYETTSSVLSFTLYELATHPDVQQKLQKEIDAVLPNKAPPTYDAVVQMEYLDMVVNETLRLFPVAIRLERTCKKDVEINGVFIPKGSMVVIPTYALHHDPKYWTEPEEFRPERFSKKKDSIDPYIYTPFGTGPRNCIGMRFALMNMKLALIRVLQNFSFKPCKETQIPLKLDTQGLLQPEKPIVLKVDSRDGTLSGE

Cytochrome P450 2B6 = biological target: T3, Cytochrome P450 2B6 (Homo sapiens, UniProt P20813); test: Inhibition of CYP2B6 (unknown origin) by time dependent inhibition assay; format: ADME
T3 sequence (P20813 whole entry): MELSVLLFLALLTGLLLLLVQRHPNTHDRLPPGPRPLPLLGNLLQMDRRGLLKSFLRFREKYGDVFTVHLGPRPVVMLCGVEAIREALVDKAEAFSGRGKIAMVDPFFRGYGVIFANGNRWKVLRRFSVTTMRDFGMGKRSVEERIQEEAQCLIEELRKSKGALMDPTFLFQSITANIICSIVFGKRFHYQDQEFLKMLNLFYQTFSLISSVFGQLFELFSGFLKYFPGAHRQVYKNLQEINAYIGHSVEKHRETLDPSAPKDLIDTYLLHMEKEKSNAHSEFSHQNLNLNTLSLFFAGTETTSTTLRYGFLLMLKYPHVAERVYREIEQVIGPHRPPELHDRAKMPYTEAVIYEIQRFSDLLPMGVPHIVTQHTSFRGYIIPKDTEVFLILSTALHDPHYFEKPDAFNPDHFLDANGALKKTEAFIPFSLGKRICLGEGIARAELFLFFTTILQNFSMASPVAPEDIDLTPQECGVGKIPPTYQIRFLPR

Cytochrome P450 2C8 [18] = biological target: T1, Cytochrome P450 2C8; test: Inhibition of CYP2C8 (unknown origin) by time dependent inhibition assay; format: ADME
Cytochrome P450 3A4 [19] = biological target: T2, Cytochrome P450 3A4; test: Inhibition of CYP3A4 (unknown origin) by time dependent inhibition assay; format: ADME
[20] = biological target: Voltage-gated inwardly rectifying potassium channel KCNH2 (Homo sapiens, UniProt Q12809); test: Inhibition of hERG; format: toxicity
Sequence of Voltage-gated inwardly rectifying potassium channel KCNH2 (Q12809 whole entry): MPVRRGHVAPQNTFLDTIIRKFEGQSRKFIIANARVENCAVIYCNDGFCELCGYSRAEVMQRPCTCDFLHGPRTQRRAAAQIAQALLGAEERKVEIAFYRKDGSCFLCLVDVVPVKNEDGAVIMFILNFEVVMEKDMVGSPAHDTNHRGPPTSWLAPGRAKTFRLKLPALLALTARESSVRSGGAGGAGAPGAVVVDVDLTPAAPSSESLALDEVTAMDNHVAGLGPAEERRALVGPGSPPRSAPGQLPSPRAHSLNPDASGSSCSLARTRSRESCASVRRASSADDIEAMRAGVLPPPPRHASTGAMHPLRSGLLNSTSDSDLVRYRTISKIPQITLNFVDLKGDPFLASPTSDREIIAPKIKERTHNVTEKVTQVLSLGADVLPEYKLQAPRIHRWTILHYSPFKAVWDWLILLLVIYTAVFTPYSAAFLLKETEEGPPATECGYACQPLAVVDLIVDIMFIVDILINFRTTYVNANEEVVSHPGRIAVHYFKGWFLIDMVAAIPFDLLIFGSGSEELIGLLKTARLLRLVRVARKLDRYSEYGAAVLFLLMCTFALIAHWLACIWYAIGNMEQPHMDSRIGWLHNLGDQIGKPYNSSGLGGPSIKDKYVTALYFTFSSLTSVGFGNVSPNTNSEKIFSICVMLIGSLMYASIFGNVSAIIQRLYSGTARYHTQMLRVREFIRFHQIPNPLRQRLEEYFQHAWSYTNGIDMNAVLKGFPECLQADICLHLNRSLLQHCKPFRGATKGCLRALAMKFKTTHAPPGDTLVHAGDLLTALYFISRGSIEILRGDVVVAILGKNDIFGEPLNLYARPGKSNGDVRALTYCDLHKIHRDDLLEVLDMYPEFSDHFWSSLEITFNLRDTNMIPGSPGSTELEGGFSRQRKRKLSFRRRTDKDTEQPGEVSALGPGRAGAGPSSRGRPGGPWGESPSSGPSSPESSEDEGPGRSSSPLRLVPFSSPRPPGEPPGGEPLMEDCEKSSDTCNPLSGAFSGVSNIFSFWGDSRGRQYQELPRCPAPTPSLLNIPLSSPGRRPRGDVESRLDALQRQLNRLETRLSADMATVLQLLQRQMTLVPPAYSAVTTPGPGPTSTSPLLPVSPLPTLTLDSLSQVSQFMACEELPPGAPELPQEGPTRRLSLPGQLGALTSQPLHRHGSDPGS

hERG = hERG (Homo sapiens, UniProt Q12809); test: Inhibition of hERG at 30 uM relative to control; format: toxicity
Sequence of hERG (Q12809 whole entry): as above

[21] = Mutagenicity in Salmonella typhimurium by AMES test; format: toxicity; conditions: salmonella enterica subsp. enterica serovar typhimurium
[22] = biological target: 5-hydroxytryptamine receptor 2A (Homo sapiens) (UniProt P28223); test: Inhibition of 5HT2A (unknown origin); conditions: concentration not given here
Sequence of 5-hydroxytryptamine receptor 2A (Homo sapiens) (P28223 whole entry, the tested form may be a part): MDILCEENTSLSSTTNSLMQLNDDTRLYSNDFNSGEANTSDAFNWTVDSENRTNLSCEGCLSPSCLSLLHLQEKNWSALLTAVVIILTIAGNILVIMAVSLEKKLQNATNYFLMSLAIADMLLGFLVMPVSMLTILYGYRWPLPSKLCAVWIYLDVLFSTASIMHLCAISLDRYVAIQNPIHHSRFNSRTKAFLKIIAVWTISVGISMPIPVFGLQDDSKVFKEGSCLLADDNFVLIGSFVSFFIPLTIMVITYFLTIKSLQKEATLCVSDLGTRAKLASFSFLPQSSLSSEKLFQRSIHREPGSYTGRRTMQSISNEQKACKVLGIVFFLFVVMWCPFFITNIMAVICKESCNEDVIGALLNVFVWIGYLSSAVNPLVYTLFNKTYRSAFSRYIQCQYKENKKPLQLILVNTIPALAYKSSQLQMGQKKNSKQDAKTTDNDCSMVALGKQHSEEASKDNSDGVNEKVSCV

[23] = biological target: Nucleotide-binding oligomerization domain-containing protein 2 (Homo sapiens) (UniProt Q9HC29); test: Inhibition of human NOD2 inflammasome activation expressed in […] cells assessed as inhibition of L18-MDP induced NF-kappaB activation by measuring SEAP activity pretreated for 1 hr followed by induced with L18-MDP measured after 18 hrs by Spectrophotometric analysis; format: cell-based; conditions: HEK, time 19.0 hrs
PBMC = test: Antagonist activity at NLRP3 inflammasome activation in Cynomolgus monkey PBMC assessed as inhibition of LPS-stimulated IL-1beta release by measuring free concentration pretreated for 1 hr followed by induced with LPS measured after 18 hrs by HTRF analysis; format: cell-based; conditions: Macaca fascicularis, filed as antagonist, time 19.0 hrs
Mus musculus [24] = test: In vivo inhibition of NLRP3 dependent cytokine production in po dosed LPS-challenged C57BL/6 mouse model assessed as inhibition of LPS-induced IL-18 production in blood pretreated for 1 hr followed by induced with LPS measured after 5 hrs by cytokine bead assay; format: functional, organism-based; conditions: time 6.0 hrs
Mus musculus [25] = test: In vivo anti-inflammatory activity against MSU crystal-induced gouty arthritis Balb/c mouse model assessed as reduction of volume of pouch exudate at 0.1 to 50 mg/kg, po single dose; format: functional, organism-based; conditions: dose 0.1-50 mg/kg
Mus musculus [26] = test: In vivo anti-inflammatory activity against MSU crystal-induced gouty arthritis Balb/c mouse model assessed as reduction in neutrophil recruitment in at 0.1 to 50 mg/kg, po single dose; format: functional, organism-based; conditions: dose 0.1-50 mg/kg

Work on CC(C)(O)c1ncc([S@](N)(=O)=NC(=O)Nc2c3c(cc4c2CCC4)CCC3)s1 yielded a solubility [1] of 21 µg/mL (≈ 49.9 µM), a half-life [2] of 2.81 h and a Vdss [3] of 0.12 L/kg. The bioavailability [4] was 61%, the half-life [5] was 9.4 h and the Vdss [6] was 0.16 L/kg. The bioavailability [7] was 83%, the Cmax [8] was 22200 ng/mL and the Cmax [9] was 8860 ng/mL. For the same compound, the fraction unbound [10] was 0.009, the EC50 at 72 h [11] was > 100 µM and the solubility thermodynamic [12] was 9.1 µg/mL (≈ 21.6 µM). It also gave a solubility thermodynamic [13] of 31.9 µg/mL (≈ 75.9 µM), a hepatocyte CLint [14] of 4.2 µL/min/1e6 cells and a Papp A→B [15] of 8.2 ×10⁻⁶ cm/s. The IC50 (Cytochrome P450 2C8 [16]) was > 60 µM, the IC50 (Cytochrome P450 2C9) was > 60 µM and the IC50 (Cytochrome P450 2C19) was > 60 µM. The IC50 (Cytochrome P450 2D6) was > 60 µM, the IC50 (Cytochrome P450 3A4 [17]) was > 60 µM and the IC50 (Cytochrome P450 3A5) was > 60 µM. The TDI (Cytochrome P450 2B6) was “Not_active”, the TDI (Cytochrome P450 2C8 [18]) was “Not_active” and the TDI (Cytochrome P450 3A4 [19]) was “Not_active”. The IC50 [20] was > 30 µM, the inhibition at 30 µM (hERG) was 8% and the Activity [21] was “Non-toxic”. The inhibition [22] was > 50%, the Activity [23] was “inactive” and the fIC50 (PBMC) was 1 nM. The inhibition (Mus musculus [24]) was “Dose-dependent-effect”, the Activity (Mus musculus [25]) was “Active” and the Activity (Mus musculus [26]) was “Active”.

— ChEMBL document CHEMBL6115017, “Discovery of DFV890, a Potent Sulfonimidamide-Containing NLRP3 Inflammasome Inhibitor” (J Med Chem, 2025)
